Where “and” joins values, the source holds several entries; their conditions need not be identical. Equal entries are not always repeated. One block for each compound: values may come before it.
Assays:
[1] = biological target: T1, Alpha-2A adrenergic receptor (Bos taurus, UniProt Q28838)
T1 sequence (Q28838 whole entry): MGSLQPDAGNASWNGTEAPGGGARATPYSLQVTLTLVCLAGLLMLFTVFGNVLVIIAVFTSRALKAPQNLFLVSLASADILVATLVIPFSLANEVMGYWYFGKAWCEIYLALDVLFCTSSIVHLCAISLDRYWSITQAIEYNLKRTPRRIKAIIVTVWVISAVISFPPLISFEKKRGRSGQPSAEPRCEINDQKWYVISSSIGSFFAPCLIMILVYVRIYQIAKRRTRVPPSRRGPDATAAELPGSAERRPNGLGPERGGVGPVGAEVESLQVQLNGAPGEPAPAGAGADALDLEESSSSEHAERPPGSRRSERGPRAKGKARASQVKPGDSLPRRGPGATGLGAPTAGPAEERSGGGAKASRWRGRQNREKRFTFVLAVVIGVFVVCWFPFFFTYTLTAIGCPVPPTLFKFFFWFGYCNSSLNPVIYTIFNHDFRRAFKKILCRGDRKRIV

[2] = biological target: T2, Alpha-2B adrenergic receptor (Didelphis virginiana, UniProt O77715)
T2 sequence (O77715 whole entry): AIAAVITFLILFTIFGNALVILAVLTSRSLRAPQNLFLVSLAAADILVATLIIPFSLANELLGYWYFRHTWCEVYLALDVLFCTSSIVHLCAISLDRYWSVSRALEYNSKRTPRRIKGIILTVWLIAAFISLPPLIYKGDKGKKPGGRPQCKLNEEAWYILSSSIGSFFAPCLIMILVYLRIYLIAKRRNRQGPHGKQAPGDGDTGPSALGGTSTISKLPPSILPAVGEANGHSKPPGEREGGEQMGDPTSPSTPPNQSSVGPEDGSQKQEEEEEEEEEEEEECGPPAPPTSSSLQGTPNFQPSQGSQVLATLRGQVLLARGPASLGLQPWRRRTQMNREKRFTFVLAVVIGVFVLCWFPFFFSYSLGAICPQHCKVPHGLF

[3] = biological target: T3, Alpha-2C adrenergic receptor (Rattus norvegicus, UniProt P22086)
T3 sequence (P22086 whole entry): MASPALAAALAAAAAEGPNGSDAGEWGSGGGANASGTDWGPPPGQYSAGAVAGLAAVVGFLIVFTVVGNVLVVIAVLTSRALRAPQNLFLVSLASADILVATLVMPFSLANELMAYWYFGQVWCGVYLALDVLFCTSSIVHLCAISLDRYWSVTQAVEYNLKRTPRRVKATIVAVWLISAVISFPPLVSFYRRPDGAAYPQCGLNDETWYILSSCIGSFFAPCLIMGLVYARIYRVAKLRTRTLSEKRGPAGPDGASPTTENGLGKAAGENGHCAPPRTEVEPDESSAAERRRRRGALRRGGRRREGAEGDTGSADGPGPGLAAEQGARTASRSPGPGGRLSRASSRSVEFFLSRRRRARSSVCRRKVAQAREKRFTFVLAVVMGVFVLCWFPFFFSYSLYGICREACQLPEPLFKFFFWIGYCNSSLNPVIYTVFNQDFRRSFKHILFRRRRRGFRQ

[4] = biological target: T4, Alpha-2A adrenergic receptor (Homo sapiens, UniProt P08913)
T4 sequence (P08913 whole entry): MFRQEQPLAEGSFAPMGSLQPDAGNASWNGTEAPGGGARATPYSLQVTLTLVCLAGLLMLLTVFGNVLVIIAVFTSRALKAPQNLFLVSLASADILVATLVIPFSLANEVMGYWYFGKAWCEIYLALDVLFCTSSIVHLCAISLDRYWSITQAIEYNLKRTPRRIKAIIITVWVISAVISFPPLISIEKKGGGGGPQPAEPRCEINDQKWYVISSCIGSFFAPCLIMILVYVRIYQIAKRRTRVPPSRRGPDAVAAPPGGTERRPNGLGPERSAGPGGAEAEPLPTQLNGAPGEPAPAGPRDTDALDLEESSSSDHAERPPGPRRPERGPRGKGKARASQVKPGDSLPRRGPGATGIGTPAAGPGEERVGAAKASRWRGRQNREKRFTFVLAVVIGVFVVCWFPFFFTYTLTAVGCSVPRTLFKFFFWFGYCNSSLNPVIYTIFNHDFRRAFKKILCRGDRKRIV

- Ki [1]: 148 nM and 324 nM
- Ki [2]: 12.9 nM and 46.8 nM
- Ki [3]: 1.58 nM and 2.29 nM
- Ki [4]: 219 nM
SMILES: COc1ccccc1N1CCN(CCC2C(=O)c3ccccc3C(C)(C)C2=O)CC1 (stereo unspecified) [NSC_122211]

- Ki [1]: 7.58 nM and 13.5 nM
- Ki [2]: 0.63 nM and 1 nM
- Ki [3]: 7.76 nM and 18.6 nM
- Ki [4]: 2.18 nM
SMILES: COc1cccc(OC)c1OCCNCC1Oc2ccccc2OC1c1ccccc1 (stereo unspecified) [NSC_185453]

- Ki [1]: 933 nM and 1050 nM
- Ki [2]: 28.2 nM
SMILES: NCC(O)c1ccc(O)c(O)c1 (stereo not drawn) [Noradrenaline,(+)]

- Ki [1]: 38 nM and 33.1 nM
- Ki [2]: 15.1 nM
SMILES: Cc1cc(C(C)(C)C)c(O)c(C)c1CC1=NCCN1 [SMR000059324]

Continued, compound first:

SMILES: O=C1NCN(c2ccccc2)C12CCN(CC1COc3ccccc3O1)CC2 (stereo unspecified) [8-(2,3-Dihydro-benzo[1,4]dioxin-2-ylmethyl)-1-phenyl-1,3,8-triaza-spiro[4.5]decan-4-one]
- Ki [1]: 9.33 nM and 12 nM
- Ki [2]: 0.26 nM and 0.61 nM
- Ki [3]: 0.28 nM and 0.7 nM
- Ki [4]: 9.54 nM

SMILES: CN1C[C@H](Cn2ccnc2-c2ccccc2)C[C@@H]2c3cccc4[nH]c(Br)c(c34)C[C@H]21 [BAM-1303]
- Ki [1]: 53.7 nM and 200 nM
- Ki [2]: 0.38 nM and 0.47 nM
- Ki [3]: 6.91 nM and 8.7 nM
- Ki [4]: 0.93 nM

SMILES: CC(C)=CCOc1ccc(Cl)c2c1CCN(C)CC2 [SK&F-104078]
- Ki [1]: 81.3 nM and 145 nM
- Ki [2]: 42.6 nM and 55 nM
- Ki [3]: 49 nM and 69.2 nM
- Ki [4]: 39.8 nM

SMILES: COc1cc2nc(N3CCN(C(=O)c4ccco4)CC3)nc(N)c2cc1OC [[3H]-Minipress]
- Ki [1]: 692 nM and 1320 nM
- Ki [2]: 132 nM and 117 nM

From BindingDB's records for PubMed 7908054 (University of Nebraska, 1994)
